Consider two compounds from patent publication US20160271162A1, “D-ALANINE PHOSPHORAMIDE PRONUCLEOTIDES OF 2'-METHYL 2'-FLURO GUANOSINE NUCLEOSIDE COMPOUNDS FOR THE TREATMENT OF HCV” (IDENIX PHARMACEUTICALS, LLC, priority 2013, published 2016).

Where only a bound is given, the exact number is not on record here.

Data set [1] can be described thus: Cytotoxicity evaluation, CellTiter-Blue cell viability. It is filed as cell-based. The note with it: human, Zluc cells (HCV replicon), CellTiter-Blue Cell Viability Assay. The procedure: For cytotoxicity evaluation, Zluc cells were treated with compound as described herein, and cell viability was monitored using the CellTiter-Blue Cell Viability Assay (Promega) by adding 20 μL of the assay solution to each well. The plates were then incubated at 37° C./5% CO2 for at least 3 hours. Fluorescence was detected in plates using excitation and emission wavelengths of 531 and 595 nm, respectively, in a Victor^3 V 1420 multilabel counter (Perkin Elmer) and CC50 values were determined using Microsoft Excel and XLfit 5.2 software.
In general terms: Resazurin is reduced to fluorescent resorufin, in cell work by metabolically active cells.

Data set [2] can be described thus: Liver pharmacokinetics following a single oral dose in CD-1 mice. It is filed as in vivo. The note with it: 2′-Me-2′-F-G TP in liver, single oral dose 10 mg/kg in PEG 200, CD-1 male mice, 4, 12 and 24 hours post dose. The procedure:
A single oral dose of test compound at 10 mg/kg for 104a and 104b in PEG 200 (dose volume 5 mL/kg) is administered to nine CD-1 male mice. Five untreated animals are used for the collection of control plasma and liver. Terminal plasma and liver samples are collected from three animals per time point at 4, 12 and 24 hours post dose. Liver specimens are collected from all animals immediately after the incision. Freezing forceps stored in liquid nitrogen are used to freeze the liver before excision.
Liver samples are analyzed for the active species 2′-methyl-2′-fluoroguanosine triphosphate (2′-Me-2′-F-G TP) by LC-MS/MS. 2′-Me-2′-F-G TP levels are assayed by homogenizing (on ice) a known weight of mouse liver with 4× volume of 0.95 M trichloroacetic acid (TCA). Internal standard solution is added to the homogenate followed by neutralization with 20% ammonium hydroxide solution and addition of 500 μL 1% formic acid. The tissue samples are extracted by weak anion exchange solid phase extraction (SPE). Post extraction, the eluates are evaporated under nitrogen, followed by reconstitution before injection onto the LC-MS/MS system. […] The analyte is detected and quantified by tandem mass spectrometry in positive ion mode on an API4000 equipped with a Turbo Ionspray® interface. […]

Another data set has as its system HCV genotype 1b replicon. The data set is described as follows: HCV replicon assay (luciferase reporter). It is filed as cell-based. To be noted: Hepatitis C virus, Huh-7-derived Zluc cells, 72 hours incubation. The method, then: Huh-7-derived cell line (Zluc) that harbors an HCV genotype 1b replicon and a luciferase reporter gene was grown in Dulbecco's Modified Eagle Medium (DMEM) supplemented with 10% fetal bovine serum, 2 mM GlutaMAX, 1% MEM nonessential amino acids, 100 IU/mL penicillin, 100 μg/mL streptomycin, and 0.5 mg/mL Geneticin® (G418). For dose response testing the cells were seeded in 96-well plates at 7.5×10^3 cells per well in a volume of 50 μl, and incubated at 37° C./5% CO2. Drug solutions were made up freshly in Huh-7 media as 2× stocks. Ten additional 5-fold dilutions were prepared from these stocks in DMEM without G418. At least three hours after Zluc cells were seeded, drug treatment was initiated by adding 50 μL of drug dilutions to the plates in duplicate. Final concentrations of drug ranged from 100 μM to 0.0000512 μM. […] After 72 hours of incubation, the inhibition of HCV replication was measured by quantification of photons emitted after mono-oxygenation of 5′-fluoroluciferin to oxyfluoroluciferin by firefly luciferase. […] The plates were shaken gently for 3 min at room temperature and luminescence was measured on a Victor^3 V 1420 multilabel counter (Perkin Elmer) with a 1 second read time using a 700 nm cut-off filter. The EC50 values were calculated from dose response curves from the resulting best-fit equations determined by Microsoft Excel and XLfit 5.2 software. […]
A general note: Replicon systems follow genome replication, usually without infectious particles.

In data set [1], `CCOc1nc(N)nc2c1ncn2C1O[C@H](COP(=O)(N[C@H](C)C(=O)OC(C)C)Oc2ccccc2)[C@@H](O)[C@@]1(C)F` (stereo partly drawn) [Compound 104a] showed a CC50 at 72 h greater than 50000 nM. The “Mouse Liver TP AUC0-24” value in data set [2] is on record as “+++ (500 < +++ ≦ 2000)”. Moreover, the EC50 with HCV genotype 1b replicon was in the range of 250 to 1000 nM.
For the compound `CCOc1nc(N)nc2c1ncn2C1O[C@H](CO[P@@](=O)(N[C@H](C)C(=O)OC(C)C)Oc2ccccc2)[C@@H](O)[C@@]1(C)F` (stereo partly drawn) [Compound 104b], the CC50 at 72 h in data set [1] is greater than 50000 nM. Besides, the “Mouse Liver TP AUC0-24” value in data set [2] is on record as “+++ (500 < +++ ≦ 2000)”. The EC50 with HCV genotype 1b replicon was in the range of 250 to 1000 nM.

Usually CC50 stands for the concentration giving 50% cytotoxicity. A high value points to lower toxicity to the cells. One may read the EC50 as the midpoint of the concentration-response curve. Read a high EC50 as weaker potency.
